This passage reports glass transition temperature results from the PolyMetriX glass transition set.

The molecule `*/N=N/c1ccc(C(=O)NCCCCNC(=O)c2ccc(*)cc2)cc1` (repeat unit) came in with a glass transition temperature of 215.00 °C.

The molecule `*C(=O)NCCCCCCNC(=O)c1ccc(N2C(=O)c3ccc(*)cc3C2=O)cc1` (repeat unit) returned a glass transition temperature of 225.00 °C.

`*C(=O)NCCN(CCNC(=O)c1ccc(N2C(=O)c3ccc(*)cc3C2=O)cc1)c1ccc(/C=C/c2ccc([N+](=O)[O-])cc2)cc1` (repeat unit): the glass transition temperature came to 178.00 °C.

Consider `*C(=O)NCCNC(=O)c1ccc(N2C(=O)c3ccc(*)cc3C2=O)cc1` (repeat unit), for which the glass transition temperature worked out at 235.00 °C.

`*C(=O)NNC(=O)c1ccc([Si](c2ccccc2)(c2ccccc2)c2ccc(C(=O)NNC(=O)c3ccc(*)o3)cc2)cc1` (repeat unit) gave a glass transition temperature of 252.00 °C.

In turn, `*C(=O)Nc1cc(NC(=O)c2ccc3[nH]c(-c4cc(-c5nc6cc(*)ccc6[nH]5)cc(N5C(=O)c6ccccc6C5=O)c4)nc3c2)cc(-c2nc3ccccc3[nH]2)c1` (repeat unit) showed a glass transition temperature of 334.00 °C.

`*C(=O)Nc1cc(NC(=O)c2ccc3c(c2)C(=O)N(c2cc(-c4nc5ccccc5s4)cc(N4C(=O)c5ccc(*)cc5C4=O)c2)C3=O)cc(-c2nc3ccccc3[nH]2)c1` (repeat unit) gave a glass transition temperature of 368.00 °C.

`*C(=O)Nc1ccc(-c2cc(-c3ccccc3)cc(-c3ccc(NC(=O)c4ccc5c(c4)C(=O)N(c4ccc(Oc6cccc7c(N8C(=O)c9ccc(*)cc9C8=O)cccc67)cc4)C5=O)cc3)n2)cc1` (repeat unit) yielded a glass transition temperature of 295.00 °C.

`*C(=O)Nc1ccc(-c2ccc(NC(=O)c3ccc4c(c3)C(=O)N(c3ccc(Oc5ccc(N6C(=O)c7ccc(*)cc7C6=O)cc5-c5ccccc5)c(-c5ccccc5)c3)C4=O)cc2)cc1` (repeat unit) returned a glass transition temperature of 358.00 °C.

For `*C(=O)Nc1ccc(-c2ccc(NC(=O)c3ccc4c(c3)C(=O)N(c3ccc(Oc5cccc6c(N7C(=O)c8ccc(*)cc8C7=O)cccc56)cc3)C4=O)cc2)cc1` (repeat unit), the glass transition temperature was determined as 301.00 °C.

For `*C(=O)c1cc(C(=O)c2ccc3c(c2)C(=O)N(c2cccc(N4C(=O)c5ccc(*)cc5C4=O)c2)C3=O)cc(-c2ccccc2)c1` (repeat unit), the glass transition temperature was found to be 266.50 °C.

`*C(=O)c1cc2c(cc1Cl)C(=O)N(c1cc(Cl)cc(N3C(=O)c4cc(*)c(Cl)cc4C3=O)c1)C2=O` (repeat unit) yielded a glass transition temperature of 311.00 °C.

The molecule `*C(=O)c1cc2c(cc1Cl)C(=O)N(c1cccc(N3C(=O)c4cc(*)c(Cl)cc4C3=O)c1)C2=O` (repeat unit) registered a glass transition temperature of 313.00 °C.

In the case of `*C(=O)c1ccc2c(c1)C(=O)N(c1ccc(-c3ccc(NC(=O)c4cccc(C(=O)Nc5ccc(-c6ccc(N7C(=O)c8ccc(*)cc8C7=O)cc6)cc5)c4)cc3)cc1)C2=O` (repeat unit), the glass transition temperature was 238.00 °C.

Molecule `*CCCCCCCCCCCCCCCCOC(=O)NCc1ccc(CNC(=O)O*)cc1` (repeat unit) displayed a glass transition temperature of 47.00 °C.

Take `*CCCCCCCCCCOc1ccc(-c2cc(-c3ccc(-c4ccccc4)cc3)c(-c3ccc(NC(=O)c4ccc(C(=O)Nc5ccc(-c6c(-c7ccc(-c8ccccc8)cc7)cc(-c7ccc(O*)cc7)cc6-c6ccc(-c7ccccc7)cc6)cc5)cc4)cc3)c(-c3ccc(-c4ccccc4)cc3)c2)cc1` (repeat unit): the glass transition temperature stood at 111.00 °C.

For `*CCCCCCNC(=O)c1ccc(C(=O)N*)c(Oc2ccc(Br)cc2)c1` (repeat unit), the glass transition temperature came to 116.00 °C.

Molecule `*CCCCCCNC(=O)c1ccc(C(=O)N*)c(Oc2ccc(F)cc2)c1` (repeat unit) registered a glass transition temperature of 113.00 °C.

`*CCCCCCNC(=O)c1ccc(C(=O)N*)c(Oc2ccccc2)c1` (repeat unit) returned a glass transition temperature of 108.00 °C.

With `*CCCCCCNC(=O)c1ccc(C(=O)N*)c(Sc2ccccc2)c1` (repeat unit), the glass transition temperature was found to be 121.00 °C.

For `*CCCCCCOc1ccc(-c2cc(-c3ccc(-c4ccccc4)cc3)c(-c3ccc(NC(=O)c4ccc(C(=O)Nc5ccc(-c6c(-c7ccc(-c8ccccc8)cc7)cc(-c7ccc(O*)cc7)cc6-c6ccc(-c7ccccc7)cc6)cc5)cc4)cc3)c(-c3ccc(-c4ccccc4)cc3)c2)cc1` (repeat unit), the glass transition temperature amounted to 121.50 °C.

Molecule `*CCCCCNC(=O)c1ccc(C(=O)N*)cc1` (repeat unit) had a glass transition temperature of 177.00 °C.

Consider `*CCCCCNc1nc(NCCCCCc2nc3cc(-c4ccc5[nH]c(*)nc5c4)ccc3[nH]2)nc(N(CC)CC)n1` (repeat unit), for which the glass transition temperature is 190.00 °C.

The molecule `*CCCCNC(=O)C(=O)N*` (repeat unit) came in with a glass transition temperature of 120.00 °C.

With `*CCCCOC(=O)NCCCCNC(=O)O*` (repeat unit), the glass transition temperature was found to be 7.00 °C.

On to `*CCCOC(=O)NCCCCCCNC(=O)O*` (repeat unit), for which the glass transition temperature turned out to be 55.00 °C.

As for `*CCN(CCOC(=O)NCCCCCCNC(=O)O*)c1ccccc1` (repeat unit), the glass transition temperature was determined as 31.90 °C.

On to `*CCNC(=O)Nc1ccc(Cc2ccc(NC(=O)NCCOCCO*)cc2)cc1` (repeat unit), for which the glass transition temperature worked out at 8.00 °C.

In turn, `*CCOCCOCCOCCOCCOCCOC(=O)NCCCCCCNC(=O)O*` (repeat unit) displayed a glass transition temperature of -31.00 °C.

For the molecule `*CCOCCOCCOCCOc1ccc(C(=O)Nc2cc(NC(=O)c3ccc(O*)cc3)cc(-c3nc4ccccc4[nH]3)c2)cc1` (repeat unit), the glass transition temperature amounted to 163.00 °C.

With `*COC(=O)NCCCCCCNC(=O)OCc1ccc(*)o1` (repeat unit), the glass transition temperature worked out at 33.00 °C.

The molecule `*NNC(=O)c1ccc(C(=O)NNC(=O)c2ccc([Si](c3ccccc3)(c3ccccc3)c3ccc(C(*)=O)cc3)cc2)c2ccccc12` (repeat unit) had a glass transition temperature of 270.00 °C.

In turn, `*Nc1cc(NC(=O)c2ccc(C(*)=O)cc2)cc(-c2nc3ccccc3[nH]2)c1` (repeat unit) returned a glass transition temperature of 267.50 °C.

Regarding `*Nc1cc(NC(=O)c2ccc(C(*)=O)cc2)cc(-c2nc3ccccc3oc2=O)c1` (repeat unit), the glass transition temperature turned out to be 103.00 °C.

For `*Nc1cc(NC(=O)c2ccc(C(*)=O)cc2)cc(C(=O)Oc2ccc(-c3ccccc3)cc2)c1` (repeat unit), the glass transition temperature came out at 178.00 °C.

In turn, `*Nc1cc(NC(=O)c2ccc(C(*)=O)cc2)cc(C(=O)Oc2cccc3ccccc23)c1` (repeat unit) showed a glass transition temperature of 192.00 °C.

On to `*Nc1ccc(-c2c(-c3ccc(-c4ccccc4)cc3)cc(-c3ccc(-c4cc(-c5ccc(-c6ccccc6)cc5)c(-c5ccc(NC(=O)c6ccc(C(*)=O)cc6)cc5)c(-c5ccc(-c6ccccc6)cc5)c4)cc3)cc2-c2ccc(-c3ccccc3)cc2)cc1` (repeat unit), for which the glass transition temperature turned out to be 305.00 °C.

With `*Nc1ccc(-c2c(-c3ccccc3)cc(-c3ccc(-c4cc(-c5ccccc5)c(-c5ccc(NC(=O)c6ccc(C(*)=O)cc6)cc5)c(-c5ccccc5)c4)cc3)cc2-c2ccccc2)cc1` (repeat unit), the glass transition temperature came to 290.00 °C.

Regarding `*Nc1ccc(-c2ccc(NC(=O)c3cc(C(*)=O)cc(S(=O)(=O)c4ccccc4)c3)cc2)cc1` (repeat unit), the glass transition temperature was determined as 319.00 °C.

For the molecule `*Nc1cccc2c(N[Se]*)cccc12` (repeat unit), the glass transition temperature was found to be 53.00 °C.

As for `*Nc1ccccc1-c1ccc(NC(=O)c2ccc(C(*)=O)cc2)cc1` (repeat unit), the glass transition temperature is 275.00 °C.

In turn, `*Nc1ccccc1-c1ccc(NC(=O)c2cccc(C(*)=O)c2)cc1` (repeat unit) had a glass transition temperature of 248.00 °C.

Consider `*Oc1ccc(/N=C/C=N/c2ccc(OC(=O)NCCCCCCNC(*)=O)cc2)cc1` (repeat unit), for which the glass transition temperature worked out at 80.00 °C.

Molecule `*Oc1ccc(C(=O)Nc2ccccc2-c2ccc(NC(=O)c3ccc(*)cc3)cc2)cc1` (repeat unit) returned a glass transition temperature of 251.00 °C.

`*Oc1ccc(C2(c3ccc(Oc4c(F)c(F)c(C(=O)c5c(F)c(F)c(*)c(F)c5F)c(F)c4F)cc3)c3ccccc3-c3ccccc32)cc1` (repeat unit) came in with a glass transition temperature of 223.00 °C.

`*Oc1ccc(S(=O)(=O)c2ccc(Oc3ccc(C(=O)c4cc(I)cc(C(=O)c5ccc(*)cc5)c4)cc3)cc2)cc1` (repeat unit): the glass transition temperature came out at 203.00 °C.

`*c1ccc(-c2ccc(NC(=O)c3cccc(C(=O)Nc4ccc(-c5ccc(N6C(=O)c7ccc(-c8ccc9c(c8)C(=O)N(*)C9=O)cc7C6=O)cc5)cc4)c3)cc2)cc1` (repeat unit) came in with a glass transition temperature of 230.00 °C.

In the case of `*c1ccc(C(=O)NNC(=O)c2ccc(C(=O)NNC(=O)c3ccc(C4(*)OC(=O)c5ccccc54)cc3)cc2)cc1` (repeat unit), the glass transition temperature was determined as 237.00 °C.

The molecule `*c1ccc(C(=O)Nc2ccc(-c3cc(Br)ccc3NC(=O)c3ccc(S(*)(=O)=O)cc3)cc2)cc1` (repeat unit) came in with a glass transition temperature of 288.00 °C.

As for `*c1ccc(Oc2ccc(C(=O)c3ccc(-c4ccc(C(=O)c5ccc(Oc6ccc(-c7nc(-c8ccc(-c9nc(*)c(-c%10ccccc%10)[nH]9)cc8)[nH]c7-c7ccccc7)cc6)cc5)cc4)cc3)cc2)cc1` (repeat unit), the glass transition temperature was 273.00 °C.

`*c1ccc(Oc2ccc(C(=O)c3ccc(-c4ccc(C(=O)c5ccc(Oc6ccc(-c7nc(-c8ccccc8)[nH]c7*)cc6)cc5)cc4)cc3)cc2)cc1` (repeat unit) registered a glass transition temperature of 258.00 °C.

Take `*c1ccc(Oc2ccc3ccccc3c2-c2c(Oc3ccc(N4C(=O)c5ccc(NC(=O)Nc6ccc(-c7cc(-c8ccc(-c9ccccc9)cc8)cc(-c8ccc(NC(=O)Nc9ccc%10c(c9)C(=O)N(*)C%10=O)cc8)n7)cc6)cc5C4=O)cc3)ccc3ccccc23)cc1` (repeat unit): the glass transition temperature came to 302.00 °C.

`*c1cccc(S(=O)(=O)NCCCCCNS(*)(=O)=O)c1` (repeat unit) showed a glass transition temperature of 74.00 °C.

In the case of `*c1cccc(S(=O)(=O)NCCNS(*)(=O)=O)c1` (repeat unit), the glass transition temperature amounted to 107.00 °C.
